Experimental data: US20170184612A1, “USE OF LEUKOCYTES AND NOVEL BIOMARKERS IN THE DIAGNOSIS, CONFIRMATION, AND TREATMENT OF A NEUROLOGICAL DISORDER” (The Trustees of Columbia University in the City of New York, priority 2014, published 2017)

Experiments:
[1] = system: peripheral blood mononuclear cells (PBMC), T cells; test: ELISpot assay, gamma-interferon release (SFC) after stimulation with a-synuclein epitope pools; type: cell-based, human; settings: for Pool +: IFNg, Pool Stimulated, number of donors with a positive response, Donors tested 1
How it was run: (§1)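 Readout is colorimetric counting of spot-forming cells, with at least 20 SFC per million cells required to confirm cytokine release. Patient and control mononuclear cells had been exposed for 22 hours at 37 C to pooled α-synuclein peptides, including phosphorylated S129 epitopes.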

[2] = system: peripheral blood mononuclear cells (PBMC), T cells; test: ELISpot assay, IL-5 release (SFC) after stimulation with a-synuclein epitope pools; type: cell-based, human
How it was run: as §1

[3] = Patients Summary, PD patients, of donors tested (peptide)
[4] = Patients Summary, PD patients, single peptide
[5] = number of donors positive to the single peptide, second 'Pool Stimulated' section (from r296), 12 donors tested
[6] = peptide + / donors tested (peptide), second 'Pool Stimulated' section (from r296), 12 donors tested
[7] = single peptide, second 'Pool Stimulated' section (from r296), 12 donors tested
[8] = pool 'Phospho' (phosphorylated peptides)
[9] = Patients Summary, Phospho pool peptides
[10] = Patients Summary, Phospho pool peptides, 10 donors tested
[11] = peptides of pool 'Poshpho', 8 donors tested
[12] = peptides of pool 'Poshpho', 8 donors tested, number of donors positive

Row | Substance | IFNg Peptide + (donors positive to the peptide) [1, 3] | IFNg Response Frequency [1, 4] [%] | IFNg Total SFC [1, 4] [SFC] | IL-g Peptide + (donors positive to the peptide) [2, 3] | IL-g Response Frequency [2, 4] [%] | IL-g Total SFC [2, 4] [SFC] | Pool + [1] | IFNg Peptide + [1, 5] | IFNg Response Frequency [1, 6] [%] | IFNg Total SFC [1, 7] [SFC] | IL-g Peptide + [2, 5] | IL-g Response Frequency [2, 6] [%] | IL-g Total SFC [2, 7] [SFC] | IL-g Avg SFC [2, 7] [SFC] | other results
1 | 3521.0045 (KTKKGVVHGV; listed as Homo sapiens) | 1 | 17 | 133 | 0 | 0 | 0 | – | – | – | – | – | – | – | – | IFNg Avg SFC [1, 4]: 133 SFC
2 | 3521.0047 (IAAATGFVKK; listed as Homo sapiens) | 0 | 0 | 0 | 0 | 0 | 0 | 0 | 0 | 0 | 0 | 0 | 0 | 0 | – | –
3 | 3521.0048 (EQVTNVGGAV; listed as Homo sapiens) | 0 | 0 | 0 | 0 | 0 | 0 | 0 | 0 | 0 | 0 | 0 | 0 | 0 | – | –
4 | 3521.0049 (APQEGILEDM; listed as Homo sapiens) | 0 | 0 | 0 | 0 | 0 | 0 | 0 | 0 | 0 | 0 | 0 | 0 | 0 | – | –
5 | 3521.0051 (EEGAPQEGIL; listed as Homo sapiens) | 1 | 25 | 427 | 0 | 0 | 0 | 1 | 1 | 50 | 554 | 1 | 50 | 1028 | 1028 | IFNg Avg SFC [1, 4]: 427 SFC; IFNg Avg SFC [1, 7]: 554 SFC
6 | 3521.0054 (MPVDPDNEAY; listed as Homo sapiens) | 0 | 0 | 0 | 0 | 0 | 0 | 0 | 0 | 0 | – | 1 | 50 | 58 | 58 | –
7 | 3521.0055 (QEGILEDMPV; listed as Homo sapiens) | 0 | 0 | 0 | 0 | 0 | 0 | 0 | 0 | 0 | – | 1 | 50 | 58 | 58 | –
8 | 3521.0056 (YEMPSEEGYQ; listed as Homo sapiens) | 0 | 0 | 0 | 0 | 0 | 0 | 0 | 0 | 0 | – | 1 | 50 | 89 | 89 | Pool + [1, 8]: 0; IFNg Response Frequency [1, 9]: 0%; IFNg Total SFC [1, 9]: 0 SFC; IFNg Peptide + (donors positive to the peptide) [1, 10]: 0; IFNg Avg SFC [1, 11]: 100 SFC; IFNg Response Frequency [1, 11]: 13%; IFNg Total SFC [1, 11]: 100 SFC; IFNg Peptide + [1, 12]: 1; IL-g Response Frequency [2, 9]: 0%; IL-g Total SFC [2, 9]: 0 SFC; IL-g Peptide + (donors positive to the peptide) [2, 10]: 0; IL-g Avg SFC [2, 11]: 167 SFC; IL-g Response Frequency [2, 11]: 13%; IL-g Total SFC [2, 11]: 167 SFC; IL-g Peptide + [2, 12]: 1
9 | 3521.0057 (NEEGAPQEGI; listed as Homo sapiens) | 0 | 0 | 0 | 0 | 0 | 0 | 0 | 1 | 50 | 26.7 | 0 | 0 | 0 | – | IFNg Avg SFC [1, 7]: 26.7 SFC
10 | 3521.0058 (SEEGYQDYEP; listed as Homo sapiens) | 0 | 0 | 0 | 0 | 0 | 0 | 0 | 0 | 0 | – | 1 | 50 | 58 | 58 | Pool + [1, 8]: 1; IFNg Avg SFC [1, 9]: 107 SFC; IFNg Response Frequency [1, 9]: 20%; IFNg Total SFC [1, 9]: 213 SFC; IFNg Peptide + (donors positive to the peptide) [1, 10]: 1; IFNg Avg SFC [1, 11]: 26.7 SFC; IFNg Response Frequency [1, 11]: 13%; IFNg Total SFC [1, 11]: 26.7 SFC; IFNg Peptide + [1, 12]: 1; IL-g Avg SFC [2, 9]: 73 SFC; IL-g Response Frequency [2, 9]: 10%; IL-g Total SFC [2, 9]: 73 SFC; IL-g Peptide + (donors positive to the peptide) [2, 10]: 1; IL-g Response Frequency [2, 11]: 0%; IL-g Total SFC [2, 11]: 0 SFC; IL-g Peptide + [2, 12]: 0
11 | 3521.0059 (AEAAGKTKEG; listed as Homo sapiens) | 0 | 0 | 0 | 1 | 13 | 71 | 1 | 1 | 50 | 120 | 0 | 0 | 0 | – | IFNg Avg SFC [1, 7]: 120 SFC; IL-g Avg SFC [2, 4]: 71 SFC
12 | 3521.0061 (AATGFVKKDQ; listed as Homo sapiens) | 0 | 0 | 0 | 0 | 0 | 0 | 0 | 1 | 50 | 84 | 1 | 50 | 195 | 195 | IFNg Avg SFC [1, 7]: 84 SFC
13 | 3521.0062 (KTKKGVVHG; listed as Homo sapiens) | 1 | 17 | 113 | 1 | 17 | 40 | 0 | – | – | – | – | – | – | – | IFNg Avg SFC [1, 4]: 113 SFC; IL-g Avg SFC [2, 4]: 40 SFC
14 | 3521.0063 (GVVHGVTTV; listed as Homo sapiens) | 1 | 50 | 143 | 0 | 0 | 0 | 1 | 0 | 0 | 0 | 0 | 0 | 0 | – | IFNg Avg SFC [1, 4]: 143 SFC
15 | 3521.0064 (GVVHGVATV; listed as Homo sapiens) | 0 | 0 | 0 | 0 | 0 | 0 | 1 | 0 | 0 | 0 | 1 | 50 | 75 | 75 | –
16 | 3521.0065 (FVKKDQLGK; listed as Homo sapiens) | 0 | 0 | 0 | 0 | 0 | 0 | 0 | 0 | 0 | 0 | 0 | 0 | 0 | – | –
